Laboratory results reported in ChEMBL document CHEMBL4354827, “Discovery of Novel, Potent, Brain-Permeable, and Orally Efficacious Positive Allosteric Modulator of α7 Nicotinic Acetylcholine Receptor [4-(5-(4-Chlorophenyl)-4-methyl-2-propionylthiophen-3-yl)benzenesulfonamide]: Structure-Activity Relationship and Preclinical Characterization” (J Med Chem, 2020).

How the values were obtained:
[1] = Metabolic stability in dog liver microsomes assessed as compound remaining at 1 uM preincubated for 5 mins followed by NADPH addition and measured after 30 mins by LC-MS/MS analysis; assay type: ADME, Canis lupus familiaris, Microsome; settings: read-out: Stability
[2] = Drug level in Wistar rat plasma at 0.5 mg/kg, po; assay type: ADME, organism-based; settings: in vivo
Rattus norvegicus [3] = assay: Memory enhancement effect in time-delay induced Wistar rat model of amnesia assessed as exploration time for novel object in retention trial at 0.5 mg/kg, po for 7 days and measured on day 8 by novel object recognition test (reference value: 15.37 sec); assay type: functional
[4] = AUCt in Wistar rat brain at 10 mg/kg, po after 1 to 144 hrs by LC-MS/MS analysis; assay type: ADME, organism-based
[5] = Drug concentration in Wistar rat plasma at 10 mg/kg, po after 1 hr by LC-MS/MS analysis; assay type: ADME, organism-based
Rattus norvegicus [6] = assay: Memory enhancement effect in time-delay induced Wistar rat model of amnesia assessed as increase in exploration time for novel object in retention trial at 3 mg/kg, po administered as single dose and measured on day 9 by novel object recognition test (reference value: 12.06 sec); assay type: functional
Rattus norvegicus [7] = assay: Improvement in social recognition scopolamine-induced Sprague-Dawley rat model of amnesia assessed as increase in reduction in social investigation time at 0.50 mg/kg, po for 7 days measured after 24 hrs (Rvb =6.59%); assay type: functional; set-up: scale not given: the % may be the effect or the level left
Rattus norvegicus [8] = assay: Memory enhancement effect in scopolamine-induced Wistar rat model of amnesia assessed as increase in discrimination index at 0.05 mg/kg, po for 7 days and measured on day 8 by novel object recognition test (reference value: 0.21); assay type: functional
Rattus norvegicus [9] = assay: Memory enhancement effect in time-delay induced Wistar rat model of amnesia assessed as exploration time for familiar object in retention trial at 1 mg/kg, po administered as single dose and measured on day 9 by novel object recognition test (reference value: 13.05 sec); assay type: functional
Rattus norvegicus [10] = assay: Memory enhancement effect in time-delay induced Wistar rat model of amnesia assessed as exploration time for object1 in acquisition trial at 0.15 mg/kg, po for 7 days and measured on day 8 by novel object recognition test (reference value: 13.73 sec); assay type: functional
Rattus norvegicus [11] = assay: Memory enhancement effect in time-delay induced Wistar rat model of amnesia assessed as exploration time for object1 at 3 mg/kg, po administered as single dose after acquisition trial by novel object recognition test (reference value: 19.09 sec); assay type: functional
[12] = Brain to plasma permeability coefficient, Kp in Wistar rat at 10 mg/kg, po after 48 hrs by LC-MS/MS analysis; assay type: ADME, organism-based
[13] = Drug concentration in Wistar rat plasma at 10 mg/kg, po after 48 hrs by LC-MS/MS analysis; assay type: ADME, organism-based
Rattus norvegicus [14] = assay: Memory enhancement effect in scopolamine-induced Wistar rat model of amnesia assessed as exploration time for object1 in acquisition trial at 0.5 mg/kg, po for 7 days and measured on day 8 by novel object recognition test (reference value: 16.11 sec); assay type: functional
[15] = Brain to plasma permeability coefficient, Kp in Wistar rat at 10 mg/kg, po after 1 hr by LC-MS/MS analysis; assay type: ADME, organism-based
Rattus norvegicus [16] = assay: Improvement in social recognition scopolamine-induced Sprague-Dawley rat model of amnesia assessed as reduction in recognition index at 1 mg/kg, po administered as single dose prior to 1 hr training and measured after 30 mins (reference value: 0.9); assay type: functional
Rattus norvegicus [17] = assay: Memory enhancement effect in time-delay induced Wistar rat model of amnesia assessed as exploration time for novel object in retention trial at 0.05 mg/kg, po for 7 days and measured on day 8 by novel object recognition test (reference value: 15.37 sec); assay type: functional
[18] = Drug level in scopolamine-induced Sprague-Dawley rat brain at 0.15 mg/kg, po for 7 days; assay type: ADME, organism-based; settings: read-out: Drug uptake
[19] = Unbound brain-to-plasma concentration ratio in Wistar rat at 10 mg/kg, po after 24 hrs by LC-MS/MS analysis; assay type: ADME, organism-based; settings: read-out: K(p,uu,brain)
Rattus norvegicus [20] = assay: Improvement in social recognition time delay-induced Sprague-Dawley rat model of amnesia assessed as increase in reduction in social investigation time at 0.15 mg/kg, po for 7 days and measured on day 9 (reference value: -0.5%); assay type: functional; set-up: scale not given: the % may be the effect or the level left
Cytochrome P450 2E1 = Cytochrome P450 2E1 (Homo sapiens, UniProt P05181); assay: Inhibition of CYP2E1 (unknown origin) up to 10 uM; assay type: ADME
Sequence of Cytochrome P450 2E1 (P05181 whole entry): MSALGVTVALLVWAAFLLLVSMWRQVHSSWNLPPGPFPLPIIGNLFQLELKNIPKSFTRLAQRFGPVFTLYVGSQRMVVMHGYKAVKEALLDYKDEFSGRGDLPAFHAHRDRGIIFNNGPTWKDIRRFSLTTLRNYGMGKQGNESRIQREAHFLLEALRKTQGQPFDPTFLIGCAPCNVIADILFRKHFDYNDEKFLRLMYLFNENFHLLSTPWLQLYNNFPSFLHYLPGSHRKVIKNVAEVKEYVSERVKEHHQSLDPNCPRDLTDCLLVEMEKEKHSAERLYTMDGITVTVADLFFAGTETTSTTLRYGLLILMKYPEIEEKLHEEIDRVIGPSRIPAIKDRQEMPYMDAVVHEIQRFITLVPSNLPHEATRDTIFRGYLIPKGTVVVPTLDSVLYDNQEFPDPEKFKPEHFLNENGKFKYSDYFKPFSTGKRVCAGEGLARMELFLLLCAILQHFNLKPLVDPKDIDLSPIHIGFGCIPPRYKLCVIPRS

[21] = Protein binding in mouse plasma assessed as unbound fraction at 5 uM incubated for 16 hrs under shaking condition by LC/MS/MS based rapid equilibrium dialysis method; assay type: ADME, cell-free
Rattus norvegicus [22] = assay: Memory enhancement effect in scopolamine-induced Wistar rat model of amnesia assessed as exploration time for object1 in acquisition trial at 0.15 mg/kg, po administered as single dose and measured on day 8 by novel object recognition test (reference value: 16.11 sec); assay type: functional
Rattus norvegicus [23] = assay: Improvement in social recognition time delay-induced Sprague-Dawley rat model of amnesia assessed as increase in reduction in social investigation time at 0.50 mg/kg, po for 7 days and measured on day 9 (reference value: -0.5%); assay type: functional; set-up: scale not given: the % may be the effect or the level left
[24] = Drug metabolism in mouse liver microsomes assessed as metabolic rate at 1 uM preincubated for 5 mins followed by NADPH addition after 30 mins by LC-MS/MS analysis; assay type: ADME, Microsome; settings: 0.5 h
Cytochrome P450 2A6 = target: T1, Cytochrome P450 2A6 (Homo sapiens, UniProt P11509); assay: Inhibition of CYP2A6 (unknown origin) up to 10 uM; assay type: ADME
T1 sequence (P11509 whole entry): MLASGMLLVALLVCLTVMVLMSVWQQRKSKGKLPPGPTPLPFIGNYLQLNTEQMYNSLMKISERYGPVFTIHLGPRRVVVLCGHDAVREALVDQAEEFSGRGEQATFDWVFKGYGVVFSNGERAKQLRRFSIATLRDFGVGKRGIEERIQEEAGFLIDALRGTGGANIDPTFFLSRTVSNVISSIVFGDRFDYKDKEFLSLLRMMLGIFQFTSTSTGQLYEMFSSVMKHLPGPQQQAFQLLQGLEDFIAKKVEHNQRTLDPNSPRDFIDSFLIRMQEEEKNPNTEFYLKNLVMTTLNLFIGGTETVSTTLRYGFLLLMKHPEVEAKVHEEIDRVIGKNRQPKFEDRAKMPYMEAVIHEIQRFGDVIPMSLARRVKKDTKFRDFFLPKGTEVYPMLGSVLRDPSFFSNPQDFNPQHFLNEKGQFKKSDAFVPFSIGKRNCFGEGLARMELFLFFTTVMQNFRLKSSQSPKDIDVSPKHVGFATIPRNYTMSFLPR

[25] = Drug metabolism in human pooled liver microsomes assessed as metabolic rate at 1 uM preincubated for 5 mins followed by NADPH addition after 30 mins by LC-MS/MS analysis; assay type: ADME, Microsome; settings: 0.5 h
[26] = Volume of distribution at steady state in Wistar rat at 1 mg/kg, iv after 0.083 to 144 hrs by LC-MS/MS analysis; assay type: ADME, organism-based; settings: in vivo, read-out: Vdss

Q: For CCC(=O)c1sc(-c2ccc(Cl)cc2)c(C)c1-c1ccc(S(N)(=O)=O)cc1, which remaining at 0.5 h, 1 µM [1] is on record?
A: Its remaining at 0.5 h, 1 µM is 93%.

Q: And the concentration [2]?
A: Its concentration is 270 nM.

Q: What about the Time (Rattus norvegicus [3]) of the same compound?
A: Its Time is 19.64 s.

Q: What about the AUC(0-t) [4] of the same compound?
A: The AUC(0-t) was 301 µM·h.

Q: And the concentration at 1 h [5]?
A: Its concentration at 1 h is 870 nM.

Q: What about the Time (Rattus norvegicus [6]) of the same compound?
A: The Time was 26.25 s.

Q: What about the Activity (Rattus norvegicus [7]) of the same compound?
A: The Activity was 25.35%.

Q: What about the Activity_index (Rattus norvegicus [8]) of the same compound?
A: Its Activity_index is 0.3.

Q: And the Time (Rattus norvegicus [9])?
A: Its Time is 10.49 s.

Q: What about the Time (Rattus norvegicus [10]) of the same compound?
A: Its Time is 10.95 s.

Q: And the Time (Rattus norvegicus [11])?
A: Its Time is 17.81 s.

Q: What about the Kp at 48 h [12] of the same compound?
A: Its Kp at 48 h is 9.52.

Q: What about the concentration at 48 h [13] of the same compound?
A: Its concentration at 48 h is 620 nM.

Q: And the Time (Rattus norvegicus [14])?
A: The Time was 13.94 s.

Q: And the Kp at 1 h [15]?
A: The Kp at 1 h was 4.63.

Q: And the Activity_index (Rattus norvegicus [16])?
A: The Activity_index was 0.52.

Q: And the Time (Rattus norvegicus [17])?
A: The Time was 13.91 s.

Q: And the concentration at 168 h [18]?
A: The concentration at 168 h was 530 nM.

Q: What about the Kp uu at 24 h [19] of the same compound?
A: The Kp uu at 24 h was 1.07.

Q: What about the Activity (Rattus norvegicus [20]) of the same compound?
A: Its Activity is 43.63%.

Q: What about the “inhibition (INH)” value (Cytochrome P450 2E1) of the same compound?
A: The value was “Not Active”.

Q: And the fraction unbound at 16 h, 5 µM [21]?
A: The fraction unbound at 16 h, 5 µM was 0.0116.

Q: And the Time (Rattus norvegicus [22])?
A: Its Time is 14.08 s.

Q: What about the Activity (Rattus norvegicus [23]) of the same compound?
A: The Activity was 46.16%.

Q: What about the Drug metabolism [24] of the same compound?
A: Its Drug metabolism is 0.01 nmol/min/mg.

Q: And the “inhibition (INH)” value (Cytochrome P450 2A6)?
A: Its value is “Not Active”.

Q: And the Drug metabolism [25]?
A: Its Drug metabolism is 0.01 nmol/min/mg.

Q: What about the Vd [26] of the same compound?
A: Its Vd is 4.3 L/kg.
